We go through 45 compounds from ChEMBL document CHEMBL2346646, “Improving the inhibitory activity of arylidenaminoguanidine compounds at the N-methyl-D-aspartate receptor complex from a recursive computational-experimental structure-activity relationship study” (Bioorg Med Chem, 2013).

The pIC50 is −log10 of the IC50, conventionally taken in molar units. Lower therefore signals a large IC50.

For the test, the target named is Glutamate [NMDA] receptor. Also on record: species or system Homo sapiens.
Consider `Cl.N=C(N)N/N=C/c1ccc([N+](=O)[O-])cc1`, for which the pIC50 is on record as 4.11.
With `COc1ccccc1/C=N/NC(=N)N.Cl` the figure was 4.77; with `CN(C)c1ccc(/C=N/NC(=N)N)cc1.Cl`, 5.1; with `COc1ccc(/C=N/NC(=N)N)c(OC)c1.Cl`, 4.54.
`Cl.N=C(N)N/N=C/c1cccc([N+](=O)[O-])c1` came in with a pIC50 of 3.81.
To `Cl.N=C(N)N/N=C/C=C/c1ccccc1` belongs 4.23; to `Cl.N=C(N)N/N=C/c1ccsc1`, 3.74.
Turning to `Cc1ccc2cc(/C=N/NC(=N)N)[nH]c2c1.Cl`, the pIC50 is 4.48.
With `Cl.Cn1c(/C=N/NC(=N)N)cc2ccccc21` the figure was 4.31; with `Cl.N=C(N)N/N=C/c1ccc2[nH]ccc2c1`, 4.3; with `Cl.N=C(N)N/N=C/c1cc2ccccc2[nH]1`, 4.24.
To `Cl.N=C(N)N/N=C/c1ccncc1` belongs 3.27; to `Cl.N=C(N)N/N=C/c1cccnc1`, 3.17; to `Cl.N=C(N)N/N=C/c1ccc[nH]1`, 4.02.
Take `Cl.N=C(N)N/N=C/c1ccc(-c2ccc([N+](=O)[O-])cc2)o1`: the pIC50 is 3.96.
To `Cc1ccc(/C=N/NC(=N)N)c2ccccc12.Cl` belongs 4.94; to `Cc1ccc2ccccc2c1/C=N/NC(=N)N.Cl`, 4.58.
As to `Cl.N=C(N)N/N=C/c1ccc2ccccc2c1`, the pIC50 is recorded as 5.06.
To `Cl.N=C(N)N/N=C/c1cccc2ccccc12` belongs 4.57; to `Cl.N=C(N)N/N=C/c1ccccc1-c1ccccc1`, 5.07; to `Cl.N=C(N)N/N=C/c1ccc(F)cc1F`, 4.26.
With `Cl.N=C(N)N/N=C/c1ccc(F)cc1` the figure was 4.04; with `Cl.N=C(N)N/N=C/c1ccccc1F`, 4.13.
With `Cl.N=C(N)N/N=C/c1ccc(Cl)cc1Cl` the figure was 4.99; with `Cl.N=C(N)N/N=C/c1cccc(Cl)c1`, 4.74; with `Cl.N=C(N)N/N=C/c1ccccc1Cl`, 5.15.
As for `COc1ccc(/C=N/NC(=N)N)cc1[N+](=O)[O-].Cl`, the pIC50 stood at 5.11.
Consider `COc1ccc(/C=N/NC(=N)N)cc1O.Cl`, for which the pIC50 amounted to 4.2.
On to `Cl.N=C(N)N/N=C/c1ccc(N)cc1`, for which the pIC50 is reported as 3.96.
To `Cl.N=C(N)N/N=C/c1cccc(N)c1` belongs 3.65.
Regarding `COc1ccc(/C=N/NC(=N)N)cc1.Cl`, the pIC50 came to 4.42.
As for `Cl.N=C(N)N/N=C/c1ccc(O)cc1O`, the pIC50 stood at 3.67.
Turning to `Cl.N=C(N)N/N=C/c1ccccc1C(F)(F)F`, the pIC50 is recorded as 4.6.
On to `CC(C)c1ccc(/C=N/NC(=N)N)cc1.Cl`, for which the pIC50 was 5.22.
The compound `CCCCc1ccc(/C=N/NC(=N)N)cc1.Cl` came in with a pIC50 of 4.37.
`CC(C)(C)c1ccc(/C=N/NC(=N)N)cc1.Cl` yielded a pIC50 of 4.64.
For `Cl.N#Cc1cccc(/C=N/NC(=N)N)c1`, the pIC50 came out at 4.36.
To `Cl.N#Cc1ccc(/C=N/NC(=N)N)cc1` belongs 3.64.
Consider `COC(=O)c1cccc(/C=N/NC(=N)N)c1.Cl`, for which the pIC50 was determined as 4.14.
With `COC(=O)c1ccc(/C=N/NC(=N)N)cc1.Cl` the figure was 4.15.
On to `Cl.N=C(N)N/N=C/c1ccccc1`, for which the pIC50 came to 4.14.
To `Cc1ccc(/C=N/NC(=N)N)cc1.Cl` belongs 4.09; to `Cl.N=C(N)N/N=C/c1ccc2c(c1)OCO2`, 4.41.
To `Cl.Cl.N=C(N)N/N=C/c1ccc(/C=N/NC(=N)N)cc1` belongs 4.49; to `Cl.N=C(N)N/N=C/c1ccc(Cl)cc1`, 5.44.
